Patent publication US5284853A, “Angiotensin II receptor blocking 2,3,6 substituted quinazolinones” (American Cyanamid Company, priority 1993, dated 1994)

Molecular target: T1, Angiotensin II Receptor (Bos taurus, UniProt P25104)
T1 construct: The brownish tissue forming the adrenal cortex is scraped off and finely minced with scissors before homogenization; tissue local slaughter house (Maxwell-Cohen); host or cells: beef adrenal cortex, microsomal membranes (100,000×g pellet)
T1 sequence (P25104 1-359): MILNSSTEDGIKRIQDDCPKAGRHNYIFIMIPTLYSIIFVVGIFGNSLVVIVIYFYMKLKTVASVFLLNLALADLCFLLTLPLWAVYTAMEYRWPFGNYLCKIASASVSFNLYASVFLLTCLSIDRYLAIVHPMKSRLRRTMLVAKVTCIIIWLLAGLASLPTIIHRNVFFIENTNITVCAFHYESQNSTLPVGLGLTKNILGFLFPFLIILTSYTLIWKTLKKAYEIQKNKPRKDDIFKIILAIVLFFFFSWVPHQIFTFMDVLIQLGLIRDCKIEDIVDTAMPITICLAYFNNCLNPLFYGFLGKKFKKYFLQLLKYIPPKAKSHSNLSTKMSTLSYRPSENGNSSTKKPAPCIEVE
Experiment: Receptor binding assay: competition of [^125 I](Sar^1,Ile^8)AngII binding to beef adrenal cortex microsomal membranes
Conditions: 60 min, room temperature, pH 7.4

`CCCCc1nc2ccc(C3CC(c4ccc(C)o4)=NO3)cc2c(=O)n1Cc1ccc(-c2ccccc2-c2nnn[nH]2)cc1` (stereo not shown) [Example 19] showed an IC50 of 170 nM.
